Patent US7547513B2, “Mutants of deoxycytidine kinase having extended enzymatic activity” (priority 2001, dated 2009)
In brackets after ≈: the same amount, converted by molar mass. Several values for one entry are separate records, joined by “and”; a condition that tells them apart may be missing. Equal entries are not always repeated.

How the values were obtained:
Assay type in all cases: cell-based
[1] = test system: Escherichia coli β7334 Δdeo tdk cdd::Tn10 pSUTrc (dck allele: none); conditions: strain β7334, dck allele none; 18 h 37° C., MS medium + IPTG
Protocol: (§1) The culture was then diluted 100 times in the same medium supplemented with IPTG and distributed on 96-well microplates in a final volume of 100 μl in a series of dilutions from to 2 to 2 nucleotide analogues. Each analogue was tested twice. After incubation for 18 hours at 37° C. with stirring, the MIC was determined as corresponding to the lowest analogue concentration for which no turbidity was detectable.
(§2) The toxicity of nucleoside analogues, deviating either by the sugar or by the base, was evaluated in strains of genotype Δdeo tdk cdd expressing on a plasmid the different dckH alleles, wild-type allele, D133E, R104Q and double mutant.
(§3) The minimum inhibitory concentrations, expressed in microM, were determined as indicated in the section Materials and Methods.

[2] = test system: Escherichia coli β7338 Δdeo tdk cdd::Tn10 pSUDCK4 (dck:D133E-R104Q); conditions: strain β7338, dck allele D133E R104Q; 18 h 37° C., MS medium + IPTG
Protocol: as §1, §2, §3

[3] = test system: Escherichia coli β7339 Δdeo tdk cdd::Tn10 (dckH none, amkG wt); assay: microbe, parasite or virus in culture; conditions: for minimum inhibitory concentration (MIC): strain β7339, dckH none, amkG wt
Protocol: as §1
(§4) We jointly expressed, within the genetic context Δdeo tdk cdd each of the four alleles of dckH with each of the two wt and T39A alleles of amkG, and tested the toxicity of the different nucleoside analogues already tested previously (Table 4 below).
as §3

[4] = test system: Escherichia coli β7346 Δdeo tdk cdd::Tn10 (dckH D133E, amkG T39A); assay: microbe, parasite or virus in culture; conditions: for minimum inhibitory concentration (MIC): strain β7346, dckH D133E, amkG T39A
Protocol: as §1, §4, §3

[5] = test system: Escherichia coli β7342 Δdeo tdk cdd::Tn10 (dckH R104Q, amkG wt); assay: microbe, parasite or virus in culture; conditions: for minimum inhibitory concentration (MIC): strain β7342, dckH R104Q, amkG wt
Protocol: as §1, §4, §3

[6] = test system: Escherichia coli β7341 Δdeo tdk cdd::Tn10 (dckH D133E, amkG wt); assay: microbe, parasite or virus in culture; conditions: for minimum inhibitory concentration (MIC): strain β7341, dckH D133E, amkG wt
Protocol: as §1, §4, §3

[7] = test system: Escherichia coli β7345 Δdeo tdk cdd::Tn10 (dckH wt, amkG T39A); assay: microbe, parasite or virus in culture; conditions: for minimum inhibitory concentration (MIC): strain β7345, dckH wt, amkG T39A
Protocol: as §1, §4, §3

[8] = test system: Escherichia coli β7348 Δdeo tdk cdd::Tn10 (dckH D133E R104Q, amkG T39A); assay: microbe, parasite or virus in culture; conditions: for minimum inhibitory concentration (MIC): strain β7348, dckH D133E R104Q, amkG T39A
Protocol: as §1, §4, §3

[9] = test system: Escherichia coli β7347 Δdeo tdk cdd::Tn10 (dckH R104Q, amkG T39A); assay: microbe, parasite or virus in culture; conditions: for minimum inhibitory concentration (MIC): strain β7347, dckH R104Q, amkG T39A
Protocol: as §1, §4, §3

[10] = test system: Escherichia coli β7340 Δdeo tdk cdd::Tn10 (dckH wt, amkG wt); assay: microbe, parasite or virus in culture; conditions: for minimum inhibitory concentration (MIC): strain β7340, dckH wt, amkG wt
Protocol: as §1, §4, §3

[11] = test system: Escherichia coli β7343 Δdeo tdk cdd::Tn10 (dckH D133E R104Q, amkG wt); assay: microbe, parasite or virus in culture; conditions: for minimum inhibitory concentration (MIC): strain β7343, dckH D133E R104Q, amkG wt
Protocol: as §1, §4, §3

[12] = test system: Escherichia coli β7344 Δdeo tdk cdd::Tn10 (dckH none, amkG T39A); assay: microbe, parasite or virus in culture; conditions: for minimum inhibitory concentration (MIC): strain β7344, dckH none, amkG T39A
Protocol: as §1, §4, §3

[13] = test system: Escherichia coli β7336 Δdeo tdk cdd::Tn10 pSUDCK2 (dck:D133E); conditions: strain β7336, dck allele D133E; 18 h 37° C., MS medium + IPTG
Protocol: The culture was then diluted 100 times in the same medium supplemented with IPTG and distributed on 96-well microplates in a final volume of 100 μl in a series of dilutions from to 2 to 2 nucleotide analogues. Each analogue was tested twice.
as §2, §3

[14] = Escherichia coli, read-out: minimum inhibitory concentration (MIC)

Nc1nc(=O)n([C@H]2C[C@H](O)[C@@H](CO)O2)cc1Br [5-bromo-dC, 5-bromo-2-deoxycytidine]
minimum inhibitory concentration (MIC) [1]: > (no toxicity could be detected at the highest analogue concentration, 1.28 mM) | minimum inhibitory concentration (MIC) [2]: > (no toxicity could be detected at the highest analogue concentration, 1.28 mM)

O=c1[nH]c(=O)n([C@H]2C[C@H](O)[C@@H](CO)O2)cc1Cl [5-chloro-dU]
minimum inhibitory concentration (MIC) [1]: > (no toxicity could be detected at the highest analogue concentration, 1.28 mM) | minimum inhibitory concentration (MIC) [2]: > (no toxicity could be detected at the highest analogue concentration, 1.28 mM)

O=c1[nH]c(=O)n([C@H]2C[C@H](O)[C@@H](CO)O2)cc1CO [5-hm-dU]
minimum inhibitory concentration (MIC) [1]: > (no toxicity could be detected at the highest analogue concentration, 1.28 mM) | minimum inhibitory concentration (MIC) [2]: > (no toxicity could be detected at the highest analogue concentration, 1.28 mM)

Nc1nc(=O)n([C@H]2C[C@H](O)[C@@H](CO)O2)cc1I [5-iodo-dC, 5-iodo-2′-deoxycytidine]
MIC [3, 14]: > 1280 µM | MIC [4, 14]: ≤ 1.25 µM | MIC [5, 14]: ≤ 1.25 µM | MIC [6, 14]: ≤ 1.25 µM | MIC [7, 14]: ≤ 1.25 µM | MIC [8, 14]: ≤ 1.25 µM | MIC [9, 14]: ≤ 1.25 µM | MIC [10, 14]: > 1280 µM | MIC [11, 14]: ≤ 1.25 µM | MIC [12, 14]: > 1280 µM

O=c1[nH]c(=O)n([C@H]2C[C@H](O)[C@@H](CO)O2)cc1I [5-iodo-dU]
minimum inhibitory concentration (MIC) [1]: > (no toxicity could be detected at the highest analogue concentration, 1.28 mM) | minimum inhibitory concentration (MIC) [2]: > (no toxicity could be detected at the highest analogue concentration, 1.28 mM)

Cc1cn([C@H]2C[C@H](O)[C@@H](CO)O2)c(N)nc1=O [5-methyl-disoC]
minimum inhibitory concentration (MIC) [1]: > (no toxicity could be detected at the highest analogue concentration, 1.28 mM) | minimum inhibitory concentration (MIC) [2]: > (no toxicity could be detected at the highest analogue concentration, 1.28 mM)

Cc1cn([C@H]2C[C@H](O)[C@@H](CN)O2)c(=O)[nH]c1=O [5′-amino-dT]
minimum inhibitory concentration (MIC) [1]: > (no toxicity could be detected at the highest analogue concentration, 1.28 mM) | minimum inhibitory concentration (MIC) [2]: > (no toxicity could be detected at the highest analogue concentration, 1.28 mM)

OC[C@H]1O[C@@H](n2c(O)nc3c(O)ncnc32)C[C@@H]1O [8ho′dI, 8-hydroxy-hypoxanthine deoxyribonucleoside]
minimum inhibitory concentration (MIC) [3]: > (no toxicity could be detected at the highest analogue concentration, 1280 microM) | minimum inhibitory concentration (MIC) [4]: 1280 µM (≈ 343 µg/mL) | minimum inhibitory concentration (MIC) [5]: > (no toxicity could be detected at the highest analogue concentration, 1280 microM) | minimum inhibitory concentration (MIC) [6]: 1280 µM (≈ 343 µg/mL) | minimum inhibitory concentration (MIC) [7]: > (no toxicity could be detected at the highest analogue concentration, 1280 microM) | minimum inhibitory concentration (MIC) [8]: > (no toxicity could be detected at the highest analogue concentration, 1280 microM) | minimum inhibitory concentration (MIC) [9]: > (no toxicity could be detected at the highest analogue concentration, 1280 microM) | minimum inhibitory concentration (MIC) [10]: > (no toxicity could be detected at the highest analogue concentration, 1280 microM) | minimum inhibitory concentration (MIC) [11]: > (no toxicity could be detected at the highest analogue concentration, 1280 microM) | minimum inhibitory concentration (MIC) [12]: > (no toxicity could be detected at the highest analogue concentration, 1280 microM) | minimum inhibitory concentration (MIC) [13]: 1280 µM | minimum inhibitory concentration (MIC) [1]: > (no toxicity could be detected at the highest analogue concentration, 1.28 mM) | minimum inhibitory concentration (MIC) [2]: > (no toxicity could be detected at the highest analogue concentration, 1.28 mM)

Nc1nc2c(ncn2[C@@H]2C[C@H](O)[C@@H](CO)O2)c(=O)o1 [d-oxanosine]
minimum inhibitory concentration (MIC) [13]: 80 µM | minimum inhibitory concentration (MIC) [1]: > (no toxicity could be detected at the highest analogue concentration, 1.28 mM) | minimum inhibitory concentration (MIC) [2]: > (no toxicity could be detected at the highest analogue concentration, 1.28 mM)

O=c1[nH]cnc2c1ncn2[C@H]1C[C@H](O)[C@@H](CO)O1 [dI, 2′-deoxyinoside]
minimum inhibitory concentration (MIC) [3]: > (no toxicity could be detected at the highest analogue concentration, 1280 microM) | minimum inhibitory concentration (MIC) [4]: ≦1.25 microM | minimum inhibitory concentration (MIC) [5]: > (no toxicity could be detected at the highest analogue concentration, 1280 microM) | minimum inhibitory concentration (MIC) [6]: ≦1.25 microM | minimum inhibitory concentration (MIC) [7]: > (no toxicity could be detected at the highest analogue concentration, 1280 microM) | minimum inhibitory concentration (MIC) [8]: 1280 µM (≈ 323 µg/mL) | minimum inhibitory concentration (MIC) [9]: > (no toxicity could be detected at the highest analogue concentration, 1280 microM) | minimum inhibitory concentration (MIC) [10]: > (no toxicity could be detected at the highest analogue concentration, 1280 microM) | minimum inhibitory concentration (MIC) [11]: 1280 µM (≈ 323 µg/mL) | minimum inhibitory concentration (MIC) [12]: > (no toxicity could be detected at the highest analogue concentration, 1280 microM) | minimum inhibitory concentration (MIC) [13]: 1 µM and 1.25 µM | minimum inhibitory concentration (MIC) [1]: > (no toxicity could be detected at the highest analogue concentration, 1.28 mM) | minimum inhibitory concentration (MIC) [2]: 320 µM

NC(=O)c1cn([C@H]2C[C@H](O)[C@@H](CO)O2)cn1 [dY, 1-(2′-deoxyribofuranosyl)imidazole-4-carboxamide]
minimum inhibitory concentration (MIC) [3]: > (no toxicity could be detected at the highest analogue concentration, 1280 microM) | minimum inhibitory concentration (MIC) [4]: 1280 µM (≈ 291 µg/mL) | minimum inhibitory concentration (MIC) [5]: > (no toxicity could be detected at the highest analogue concentration, 1280 microM) | minimum inhibitory concentration (MIC) [6]: > (no toxicity could be detected at the highest analogue concentration, 1280 microM) | minimum inhibitory concentration (MIC) [7]: > (no toxicity could be detected at the highest analogue concentration, 1280 microM) | minimum inhibitory concentration (MIC) [8]: > (no toxicity could be detected at the highest analogue concentration, 1280 microM) | minimum inhibitory concentration (MIC) [9]: > (no toxicity could be detected at the highest analogue concentration, 1280 microM) | minimum inhibitory concentration (MIC) [10]: > (no toxicity could be detected at the highest analogue concentration, 1280 microM) | minimum inhibitory concentration (MIC) [11]: > (no toxicity could be detected at the highest analogue concentration, 1280 microM) | minimum inhibitory concentration (MIC) [12]: > (no toxicity could be detected at the highest analogue concentration, 1280 microM) | minimum inhibitory concentration (MIC) [1]: > (no toxicity could be detected at the highest analogue concentration, 1.28 mM) | minimum inhibitory concentration (MIC) [2]: > (no toxicity could be detected at the highest analogue concentration, 1.28 mM)

Nc1ccn([C@H]2CC[C@@H](CO)O2)c(=O)n1 [ddC]
minimum inhibitory concentration (MIC) [1]: > (no toxicity could be detected at the highest analogue concentration, 1.28 mM) | minimum inhibitory concentration (MIC) [2]: > (no toxicity could be detected at the highest analogue concentration, 1.28 mM)

Cc1cn([C@H]2CC[C@@H](CO)O2)c(=O)[nH]c1=O [ddT]
minimum inhibitory concentration (MIC) [1]: > (no toxicity could be detected at the highest analogue concentration, 1.28 mM) | minimum inhibitory concentration (MIC) [2]: > (no toxicity could be detected at the highest analogue concentration, 1.28 mM)

O=c1ccn([C@H]2CC[C@@H](CO)O2)c(=O)[nH]1 [ddU]
minimum inhibitory concentration (MIC) [1]: > (no toxicity could be detected at the highest analogue concentration, 1.28 mM) | minimum inhibitory concentration (MIC) [2]: > (no toxicity could be detected at the highest analogue concentration, 1.28 mM)
